US10106556B2, “Heterocyclic compound” (TAKEDA PHARMACEUTICAL COMPANY LIMITED, priority 2015, dated 2018)

Target: T1, His-hMAGL (recombinant polyhistidine tagged human MAGL protein) (Homo sapiens, UniProt Q99685)
T1 construct: made in house; host or cells: E. coli BL21(DE3)
T1 sequence (Q99685 1-303): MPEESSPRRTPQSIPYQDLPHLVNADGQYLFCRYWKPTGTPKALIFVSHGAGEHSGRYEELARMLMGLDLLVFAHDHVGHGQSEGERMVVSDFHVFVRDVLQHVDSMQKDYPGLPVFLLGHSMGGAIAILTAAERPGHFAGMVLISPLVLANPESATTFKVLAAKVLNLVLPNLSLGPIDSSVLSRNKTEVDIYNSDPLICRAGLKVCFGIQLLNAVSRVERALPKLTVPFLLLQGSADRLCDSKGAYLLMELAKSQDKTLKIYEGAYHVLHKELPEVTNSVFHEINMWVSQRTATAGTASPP
Assay: Measurement of MAGL inhibitory activity (arachidonic acid production from 2-arachidonylglycerol, RapidFire-mass spectrometry)
Assay type: biochemical
Conditions: MAGL inhibitory rate at 10 μM test compound, 60 min preincubation with His-hMAGL, 2-arachidonylglycerol substrate, 10 min reaction at room temperature
Method in brief: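 Inhibition (%) was derived from arachidonic acid levels relative to enzyme-free and compound-free groups. Product was measured by online C4 solid-phase extraction and triple-quadrupole MS in negative SRM mode, corrected by arachidonic acid-d8 (3 μM in the acetonitrile added). Substrate was 2-arachidonylglycerol; enzyme was His-tagged recombinant human MAGL.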

## O=C1COc2cc(F)c(C(=O)N3CC(COc4ccc5cnccc5c4)C3)cc2N1 [Example 173, 7-fluoro-6-((3-((isoquinolin-6-yloxy)methyl)azetidin-1-yl)carbonyl)-2H-1,4-benzoxazin-3(4H)-one]
  inhibition at 10 µM: 98%

## O=C1COc2cc(F)c(C(=O)N3CC(COc4cc(Cl)ccc4Cl)C3)cc2N1 [Example 125, 6-((3-((2,5-dichlorophenoxy)methyl)azetidin-1-yl)carbonyl)-7-fluoro-2H-1,4-benzoxazin-3(4H)-one]
  inhibition at 10 µM: 98%

## N#Cc1cc(Cl)ccc1OCC1CCN(C(=O)c2cc3c(cc2F)OCC(=O)N3)CC1 [Example 72, 5-chloro-2-((1-((7-fluoro-3-oxo-3,4-dihydro-2H-1,4-benzoxazin-6-yl)carbonyl)piperidin-4-yl)methoxy)benzonitrile]
  inhibition at 10 µM: 100%

## CC(Oc1ccc(F)c(F)c1)C1CN(C(=O)c2cc3c(cc2F)OCC(=O)N3)C1 (centres unmarked) [Example 312, 6-((3-(1-(3,4-difluorophenoxy)ethyl)azetidin-1-yl)carbonyl)-7-fluoro-2H-1,4-benzoxazin-3(4H)-one]
  % inhibition (10 μM): 101%

## O=C(c1cc2[nH]c(=O)oc2cc1F)N1CCC(COc2ccc(F)cc2Cl)CC1 [Example 101, 5-((4-((2-chloro-4-fluorophenoxy)methyl)piperidin-1-yl)carbonyl)-6-fluoro-1,3-benzoxazol-2(3H)-one]
  inhibition at 10 µM: 99%

## O=C1COc2ccc(C(=O)N3CCC(COc4cccc(OC(F)(F)F)c4)CC3)cc2N1 [Example 54, 6-((4-((3-(trifluoromethoxy)phenoxy)methyl)piperidin-1-yl)carbonyl)-2H-1,4-benzoxazin-3(4H)-one]
  inhibition at 10 µM: 98%

## O=C1COc2cc(F)c(C(=O)N3CC(COc4ccc(-c5ccc(C(F)(F)F)nc5)cc4F)C3)cc2N1 [Example 256, 7-fluoro-6-((3-((2-fluoro-4-(6-(trifluoromethyl)pyridin-3-yl)phenoxy)methyl)azetidin-1-yl)carbonyl)-2H-1,4-benzoxazin-3(4H)-one]
  inhibition at 10 µM: 98%

## O=C1COc2cc(F)c(C(=O)N3CC(COc4ccc5[nH]ncc5c4)C3)cc2N1 [Example 156, 7-fluoro-6-((3-((1H-indazol-5-yloxy)methyl)azetidin-1-yl)carbonyl)-2H-1,4-benzoxazin-3(4H)-one]
  inhibition at 10 µM: 100%

## Cc1nc(C)c(-c2ccc(OCC3CN(C(=O)c4cc5c(cc4F)OCC(=O)N5)C3)c(F)c2)s1 [Example 260, 6-((3-((4-(2,4-dimethyl-1,3-thiazol-5-yl)-2-fluorophenoxy)methyl)azetidin-1-yl)carbonyl)-7-fluoro-2H-1,4-benzoxazin-3(4H)-one]
  inhibition at 10 µM: 100%

## O=C1COc2cc(F)c(C(=O)N3CC(COc4ccc(Cl)cc4-c4ccnc(F)c4)C3)cc2N1 [Example 207, 6-((3-((4-chloro-2-(2-fluoropyridin-4-yl)phenoxy)methyl)azetidin-1-yl)carbonyl)-7-fluoro-2H-1,4-benzoxazin-3(4H)-one]
  inhibition at 10 µM: 100%

## O=C1COc2ncc(C(=O)N3CCC(COc4cccc(Cl)c4Cl)CC3)cc2N1 [Example 25, 7-((4-((2,3-dichlorophenoxy)methyl)piperidin-1-yl)carbonyl)-1H-pyrido[2,3-b][1,4]oxazin-2(3H)-one]
  inhibition at 10 µM: 100%

## N#Cc1cc(Cl)ccc1OCC1CCN(C(=O)c2ccc3c(c2)NC(=O)CO3)CC1 [Example 33, 5-chloro-2-((1-((3-oxo-3,4-dihydro-2H-1,4-benzoxazin-6-yl)carbonyl)piperidin-4-yl)methoxy)benzonitrile]
  inhibition at 10 µM: 99%

## Cn1nccc1-c1ccc(OCC2CN(C(=O)c3cc4c(cc3F)OCC(=O)N4)C2)c(F)c1 [Example 254, 7-fluoro-6-((3-((2-fluoro-4-(1-methyl-1H-pyrazol-5-yl)phenoxy)methyl)azetidin-1-yl)carbonyl)-2H-1,4-benzoxazin-3(4H)-one]
  inhibition at 10 µM: 102%

## O=C1COc2cc(F)c(C(=O)N3CC(COc4cc(F)cc(Cl)c4)C3)cc2N1 [Example 134, 6-((3-((3-chloro-5-fluorophenoxy)methyl)azetidin-1-yl)carbonyl)-7-fluoro-2H-1,4-benzoxazin-3(4H)-one]
  inhibition at 10 µM: 102%

## O=C1COc2ccc(C(=O)N3CCC(COc4ccc(C(F)(F)F)cc4)CC3)cc2N1 [Example 58, 6-((4-((4-(trifluoromethyl)phenoxy)methyl)piperidin-1-yl)carbonyl)-2H-1,4-benzoxazin-3(4H)-one]
  inhibition at 10 µM: 100%

## O=C1COc2ccc(C(=O)N3CCC(COc4cc(Cl)cc(Cl)c4)CC3)cc2N1 [Example 45, 6-((4-((3,5-dichlorophenoxy)methyl)piperidin-1-yl)carbonyl)-2H-1,4-benzoxazin-3(4H)-one]
  inhibition at 10 µM: 98%

## O=C1COc2cc(F)c(C(=O)N3CC(COc4ccc(Cl)cc4)C3)cc2N1 [Example 111, 6-((3-((4-chlorophenoxy)methyl)azetidin-1-yl)carbonyl)-7-fluoro-2H-1,4-benzoxazin-3(4H)-one]
  inhibition at 10 µM: 98%

## O=C1COc2cc(F)c(C(=O)N3CC(COc4ccc(-c5cnn(C(F)F)c5)cc4F)C3)cc2N1 [Example 247, 6-((3-((4-(1-(difluoromethyl)-1H-pyrazol-4-yl)-2-fluorophenoxy)methyl)azetidin-1-yl)carbonyl)-7-fluoro-2H-1,4-benzoxazin-3(4H)-one]
  inhibition at 10 µM: 96%

## O=C1COc2cc(F)c(C(=O)N3CC(OCc4ccc(F)cc4)C3)cc2N1 [Example 332, 7-fluoro-6-((3-((4-fluorobenzyl)oxy)azetidin-1-yl)carbonyl)-2H-1,4-benzoxazin-3(4H)-one]
  inhibition at 10 µM: 98%

## O=C1COc2cc(F)c(C(=O)N3CC(COc4ccc(Cl)cc4-c4cnn(C5CC5)c4)C3)cc2N1 [Example 215, 6-((3-((4-chloro-2-(1-cyclopropyl-1H-pyrazol-4-yl)phenoxy)methyl)azetidin-1-yl)carbonyl)-7-fluoro-2H-1,4-benzoxazin-3(4H)-one]
  inhibition at 10 µM: 99%

## O=C1COc2cc(F)c(C(=O)N3CC(COc4ccc(Cl)cc4-c4nnco4)C3)cc2N1 [Example 175, 6-((3-((4-chloro-2-(1,3,4-oxadiazol-2-yl)phenoxy)methyl)azetidin-1-yl)carbonyl)-7-fluoro-2H-1,4-benzoxazin-3(4H)-one]
  inhibition at 10 µM: 97%

## O=C1COc2cc(F)c(C(=O)N3CC(COc4ccc(Cl)cc4C4=CCOCC4)C3)cc2N1 [Example 211, 6-((3-((4-chloro-2-(3,6-dihydro-2H-pyran-4-yl)phenoxy)methyl)azetidin-1-yl)carbonyl)-7-fluoro-2H-1,4-benzoxazin-3(4H)-one]
  inhibition at 10 µM: 101%

## Cc1ncccc1-c1ccc(OCC2CN(C(=O)c3cc4c(cc3F)OCC(=O)N4)C2)c(F)c1 [Example 262, 7-fluoro-6-((3-((2-fluoro-4-(2-methylpyridin-3-yl)phenoxy)methyl)azetidin-1-yl)carbonyl)-2H-1,4-benzoxazin-3(4H)-one]
  inhibition at 10 µM: 98%

## O=C1COc2cc(F)c(C(=O)N3CC(COCc4ccc(Cl)cc4)C3)cc2N1 [Example 147, 6-((3-(((4-chlorobenzyl)oxy)methyl)azetidin-1-yl)carbonyl)-7-fluoro-2H-1,4-benzoxazin-3(4H)-one]
  inhibition at 10 µM: 102%

## O=C1COc2ccc(C(=O)N3CCC(COc4ccc(Cl)nc4Cl)CC3)cc2N1 [Example 41, 6-((4-(((2,6-dichloropyridin-3-yl)oxy)methyl)piperidin-1-yl)carbonyl)-2H-1,4-benzoxazin-3(4H)-one]
  inhibition at 10 µM: 103%

## O=C1COc2ccc(C(=O)N3CCC(COc4ccc(Cl)c(Cl)c4)CC3)cc2N1 [Example 43, 6-((4-((3,4-dichlorophenoxy)methyl)piperidin-1-yl)carbonyl)-2H-1,4-benzoxazin-3(4H)-one]
  inhibition at 10 µM: 100%

## N#Cc1cc(C(F)(F)F)ccc1OCC1CCN(C(=O)c2ccc3c(c2)NC(=O)CO3)CC1 [Example 67]
  inhibition at 10 µM: 101%

## Cc1ccc(OCC2CN(C(=O)c3cc4c(cc3F)OCC(=O)N4)C2)c(Cl)c1 [Example 117, 6-((3-((2-chloro-4-methylphenoxy)methyl)azetidin-1-yl)carbonyl)-7-fluoro-2H-1,4-benzoxazin-3(4H)-one]
  inhibition at 10 µM: 102%

## CC(C)(C)c1ccccc1OCC1CN(C(=O)c2ccc3c(c2)NC(=O)CO3)C1 [Example 146, 6-((3-((2-tert-butylphenoxy)methyl)azetidin-1-yl)carbonyl)-2H-1,4-benzoxazin-3(4H)-one]
  inhibition at 10 µM: 97%

## Cc1nc2ccc(OCC3CN(C(=O)c4cc5c(cc4F)OCC(=O)N5)C3)cc2o1 [Example 153, 7-fluoro-6-((3-(((2-methyl-1,3-benzoxazol-6-yl)oxy)methyl)azetidin-1-yl)carbonyl)-2H-1,4-benzoxazin-3(4H)-one]
  inhibition at 10 µM: 100%

## O=C1COc2cc(F)c(C(=O)N3CC(COc4ccc(Cl)cc4-c4ccnc(Cl)c4)C3)cc2N1 [Example 208, 6-((3-((4-chloro-2-(2-chloropyridin-4-yl)phenoxy)methyl)azetidin-1-yl)carbonyl)-7-fluoro-2H-1,4-benzoxazin-3(4H)-one]
  inhibition at 10 µM: 98%

## CC(Oc1cccc(F)c1F)C1CN(C(=O)c2cc3c(cc2F)OCC(=O)N3)C1 (centres unmarked) [Example 310, 6-((3-(1-(2,3-difluorophenoxy)ethyl)azetidin-1-yl)carbonyl)-7-fluoro-2H-1,4-benzoxazin-3(4H)-one]
  % inhibition (10 μM): 99%
